Experimental data as given in article PMC8286840, “Identifying SARS-CoV-2 antiviral compounds by screening for small molecule inhibitors of Nsp3 papain-like protease” (Biochemical Journal, 2021).
Structures can show the parent of a compound that is named as a salt. Where two headings read alike, the source gives them in different places.

Legend:
[1] = target: T1, SARS-CoV-2 PLpro (nsp3 1564–1878) (Severe acute respiratory syndrome coronavirus 2, UniProt P0DTD1); test: biochemical; set-up: FRET-quenched peptide (Pro3) cleavage by PLpro, 10 min pre-incubation, slope over 20 min, normalised to no-compound control; settings: read-out: % of control remaining
[2] = target: T1, SARS-CoV-2 PLpro (nsp3 1564–1878); test: biochemical; set-up: FRET-quenched peptide (Pro3) cleavage by PLpro, 10 min pre-incubation, slope over 20 min, normalised to no-compound control; settings: read-out: % of control remaining; remark: listed apart in the source

For `C=C1C=C(C)n2nc(CC3C(=O)C[C@](CCc4cc(CC)nc(CC)c4)(C4CCCC4)OC3=O)nc2N1` (stereo partly drawn) [(6R)-6-cyclopentyl-6-(2-(2,6-diethylpyridin-4-yl)ethyl)-3-((7-methyl-5-methylene-4,5-dihydro-[1,2,4]triazolo[1,5-a]pyrimidin-2-yl)methyl)dihydro-2H-pyran-2,4(3H)-dione], the remaining activity at 1.25 µM ([1]; Well no.=5607, low concentration screen) was 102% and the remaining activity at 3.75 µM ([2]; Well no.=5607, high concentration screen) was 105%.
`C[C@@H]1Cc2c(Cl)cc(C(=O)N[C@@H](Cc3ccccc3)C(=O)O)c(O)c2C(=O)O1` [Ochratoxin A] showed a remaining activity at 1.25 µM [1] of 92.5% and a remaining activity at 3.75 µM [2] of 92.8%.
`O=C(NO)c1cccc(C(=O)NCCc2ccccc2)c1` [BRD73954] was tested, and the remaining activity at 1.25 µM ([1]; Well no.=5588, low concentration screen) was 99.7% and the remaining activity at 3.75 µM ([2]; Well no.=5588, high concentration screen) was 92.7%.
`O=c1cc(-c2ccc(O)cc2)oc2c([C@@H]3O[C@H](CO)[C@@H](O)[C@H](O)[C@H]3O)c(O)cc(O)c12` [Vitexin] gave a remaining activity at 1.25 µM ([1]; Well no.=3396, low concentration screen) of 95.4% and a remaining activity at 3.75 µM ([2]; Well no.=3396, high concentration screen) of 97.6%.
`c1ccc2c(c1)OCC(CN1CCCCC1)O2` (centres unmarked) [Piperoxan (hydrochloride)] showed a remaining activity at 1.25 µM ([1]; Well no.=7383, low concentration screen) of 106% and a remaining activity at 3.75 µM ([2]; Well no.=7383, high concentration screen) of 105%.
`COc1cc(CCc2cc(NC(=O)c3ccc(N4C[C@@H](C)N[C@@H](C)C4)cc3)n[nH]2)cc(OC)c1` [AZD4547] gave a remaining activity at 1.25 µM ([1]; Well no.=5125, low concentration screen) of 101% and a remaining activity at 3.75 µM ([2]; Well no.=5125, high concentration screen) of 93.9%.
Work on `CC(=O)NCCc1ccc(O)c(O)c1` [N-Acetyldopamine monohydrate] yielded a remaining activity at 1.25 µM ([1]; Well no.=56, low concentration screen) of 98.3% and a remaining activity at 3.75 µM ([2]; Well no.=56, high concentration screen) of 101%.
For `Cc1[nH]cnc1CN1CCc2c(c3ccccc3n2C)C1=O` [Alosetron (Hydrochloride)], the remaining activity at 1.25 µM ([1]; Well no.=8289, low concentration screen) was 105% and the remaining activity at 3.75 µM ([2]; Well no.=8289, high concentration screen) was 99.5%.
With `C[C@@H]1O[C@@H](O[C@H]2C[C@@H](O)[C@]3(CO)[C@H]4[C@H](O)C[C@]5(C)[C@@H](C6COC(=O)C6)CC[C@]5(O)[C@@H]4CC[C@]3(O)C2)[C@H](O)[C@H](O)[C@H]1O` (some centres unmarked) [Dihydroouabain] the remaining activity at 1.25 µM ([1]; Well no.=539, low concentration screen) was 91.5% and the remaining activity at 3.75 µM ([2]; Well no.=539, high concentration screen) was 93.8%.
Molecule `COc1ccc([C@@H]2OC[C@@H]3[C@H]2CO[C@H]3c2ccc(OC)c(OC)c2)cc1OC` [Eudesmine] has a remaining activity at 1.25 µM ([1]; Well no.=3117, low concentration screen) of 95.1% and a remaining activity at 3.75 µM ([2]; Well no.=3117, high concentration screen) of 88.7%.
`Cc1cccc(C2CN(C)CCc3c2cc(O)c(O)c3Cl)c1` (centres unmarked) [SKF 83959 hydrobromide] was tested, and the remaining activity at 1.25 µM ([1]; Well no.=1264, low concentration screen) was 106% and the remaining activity at 3.75 µM ([2]; Well no.=1264, high concentration screen) was 108%.
For `Cc1cc(-n2c(=O)[nH]c(=O)n(C)c2=O)ccc1Oc1ccc(SC(F)(F)F)cc1` [Toltrazuril], the remaining activity at 1.25 µM ([1]; Well no.=4692, low concentration screen) was 110% and the remaining activity at 3.75 µM ([2]; Well no.=4692, high concentration screen) was 102%.
Molecule `Cc1ccc(S(=O)(=O)Cc2nc(-c3ccc(C(=O)NCc4cccnc4)cc3)oc2C)cc1` [STF-118804] has a remaining activity at 1.25 µM ([1]; Well no.=5552, low concentration screen) of 90.7% and a remaining activity at 3.75 µM ([2]; Well no.=5552, high concentration screen) of 91.7%.
For `CC(=O)OCC(=O)[C@@]1(O)[C@H](C)C[C@H]2[C@@H]3CCC4=CC(=O)C=C[C@]4(C)[C@@]3(F)[C@@H](O)C[C@@]21C` [Dexamethasone (acetate)], the remaining activity at 1.25 µM ([1]; Well no.=6465, low concentration screen) was 107% and the remaining activity at 3.75 µM ([2]; Well no.=6465, high concentration screen) was 106%.
Molecule `C[C@H](N)C(=O)O` [L-Alanine] has a remaining activity at 1.25 µM ([1]; Well no.=7749, low concentration screen) of 95.2% and a remaining activity at 3.75 µM ([2]; Well no.=7749, high concentration screen) of 97.6%.
For `COC1=C[C@@H]2[C@@H]3Cc4ccc(OC)c(O)c4[C@]2(CCN3C)CC1=O` [Sinomenine], the remaining activity at 1.25 µM ([1]; Well no.=3757, low concentration screen) was 97.3% and the remaining activity at 3.75 µM ([2]; Well no.=3757, high concentration screen) was 98.8%.
In the case of `CCN(CC)CCCC(C)Nc1nc(C)cc(Nc2ccc3nc(C)cc(N)c3c2)n1` (centres unmarked) [NSC 23766], the remaining activity at 1.25 µM ([1]; Well no.=4798, low concentration screen) is reported as 103% and the remaining activity at 3.75 µM ([2]; Well no.=4798, high concentration screen) is reported as 101%.
With `O=C(O)CCCCCC(=O)O` [Pimelic acid] the remaining activity at 1.25 µM ([1]; Well no.=7115, low concentration screen) was 96.9% and the remaining activity at 3.75 µM ([2]; Well no.=7115, high concentration screen) was 99.2%.
In the case of `C=CCCCCCCCCCCC(=O)O` [12-Tridecenoic acid], the remaining activity at 1.25 µM ([1]; Well no.=4264, low concentration screen) is reported as 91.3% and the remaining activity at 3.75 µM ([2]; Well no.=4264, high concentration screen) is reported as 98%.
For `CCc1c(O)cc(O)c(C(=O)c2ccc(OCCN3CCOCC3)c(OC)c2)c1CC(=O)N(CCOC)CCOC` [KW-2478], the remaining activity at 1.25 µM ([1]; Well no.=5342, low concentration screen) was 93.8% and the remaining activity at 3.75 µM ([2]; Well no.=5342, high concentration screen) was 94.5%.
For `N=C1CCCN1Cc1[nH]c(=O)[nH]c(=O)c1Cl` [Tipiracil hydrochloride], the remaining activity at 1.25 µM ([1]; Well no.=8154, low concentration screen) was 95.9% and the remaining activity at 3.75 µM ([2]; Well no.=8154, high concentration screen) was 95.8%.
`C[C@@H]1O[C@@H](OC[C@H]2O[C@@H](Oc3c(-c4ccc(O)c(O)c4)oc4cc(O)cc(O)c4c3=O)[C@H](O)[C@@H](O)[C@@H]2O)[C@H](O)[C@H](O)[C@H]1O` [Rutin] showed a remaining activity at 1.25 µM ([1]; Well no.=3711, low concentration screen) of 103% and a remaining activity at 3.75 µM ([2]; Well no.=3711, high concentration screen) of 106%.
`C[N+](C)(C)CCCCCCCCCC[N+](C)(C)C` [Decamethonium dibromide] showed a remaining activity at 1.25 µM ([1]; Well no.=683, low concentration screen) of 94% and a remaining activity at 3.75 µM ([2]; Well no.=683, high concentration screen) of 95.4%.
Work on `NCCCCCNCC12CC3CC(CC(C3)C1)C2` [IEM 1754 dihydrobroMide] yielded a remaining activity at 1.25 µM ([1]; Well no.=5175, low concentration screen) of 97.7% and a remaining activity at 3.75 µM ([2]; Well no.=5175, high concentration screen) of 99.2%.
Work on `CCCC(N)C(=O)O` (racemic) [DL-Norvaline] yielded a remaining activity at 1.25 µM ([1]; Well no.=7399, low concentration screen) of 108%, a remaining activity at 3.75 µM ([2]; Well no.=7399, high concentration screen) of 108% and a remaining activity at 3.75 µM ([2]; Well no.=8563, high concentration screen) of 109%.
Molecule `COc1cc2c(cc1OC)-c1cc3ccc(OC)c(OC)c3c[n+]1CC2` [Palmatine chloride] has a remaining activity at 1.25 µM ([1]; Well no.=3641, low concentration screen) of 101% and a remaining activity at 3.75 µM ([2]; Well no.=3641, high concentration screen) of 99.2%.
Work on `CSCC[C@H](NC(=O)[C@H](Cc1ccccc1)NC(=O)CNC(=O)CNC(=O)[C@@H](N)Cc1ccc(O)cc1)C(=O)O` [Tyr-Gly-Gly-Phe-Met-OH] yielded a remaining activity at 1.25 µM [1] of 98.2% and a remaining activity at 3.75 µM [2] of 101%.
In the case of `C[C@@H]1O[C@@H](O[C@@H]2[C@@H](O)[C@H](O)[C@@H](CO)O[C@H]2c2c(O)cc(O)c3c(=O)cc(-c4ccc(O)cc4)oc23)[C@H](O)[C@H](O)[C@H]1O` [Vitexin-2-O-rhamnoside], the remaining activity at 1.25 µM ([1]; Well no.=3405, low concentration screen) is reported as 91.6% and the remaining activity at 3.75 µM ([2]; Well no.=3405, high concentration screen) is reported as 80.4%.
With `OC[C@H]1O[C@@H](n2cnc3c(NC4CCCCC4)ncnc32)[C@H](O)[C@@H]1O` [N6-Cyclohexyladenosine] the remaining activity at 1.25 µM ([1]; Well no.=435, low concentration screen) was 98.1%, the remaining activity at 1.25 µM ([1]; Well no.=7053, low concentration screen) was 96.4% and the remaining activity at 1.25 µM ([1]; Well no.=7952, low concentration screen) was 92%. It also gave a remaining activity at 1.25 µM ([1]; Well no.=8083, low concentration screen) of 106%, a remaining activity at 3.75 µM ([2]; Well no.=435, high concentration screen) of 100% and a remaining activity at 3.75 µM ([2]; Well no.=7053, high concentration screen) of 95.5%. The remaining activity at 3.75 µM ([2]; Well no.=7952, high concentration screen) was 92.4% and the remaining activity at 3.75 µM ([2]; Well no.=8083, high concentration screen) was 105%.
`Cn1cnc(CCN)c1` [1-Methylhistamine dihydrochloride] was tested, and the remaining activity at 1.25 µM ([1]; Well no.=928, low concentration screen) was 101% and the remaining activity at 3.75 µM ([2]; Well no.=928, high concentration screen) was 103%.
`NCCCC[C@@H]1NC(=O)[C@@H](Cc2ccccc2)NC(=O)[C@H](CC(=O)O)NC(=O)CNC(=O)[C@H](CCCN=C(N)N)NC1=O` [Cyclo(-RGDfK)] showed a remaining activity at 1.25 µM ([1]; Well no.=8410, low concentration screen) of 96.3% and a remaining activity at 3.75 µM ([2]; Well no.=8410, high concentration screen) of 96.9%.
With `OC[C@H]1O[C@@H](n2cnc3c(N[C@@H]4C[C@H]5CC[C@H]4C5)ncnc32)[C@H](O)[C@@H]1O` [(S)-ENBA] the remaining activity at 1.25 µM ([1]; Well no.=465, low concentration screen) was 102% and the remaining activity at 3.75 µM ([2]; Well no.=465, high concentration screen) was 105%.
